Reference: article PMC3877268, “Reconstructed Ancestral Myo-Inositol-3-Phosphate Synthases Indicate That Ancestors of the Thermococcales and Thermotoga Species Were More Thermophilic than Their Descendants” (PLoS ONE, 2013)

Key:
Test in all cases: periodate / malachite green phosphate assay, Lineweaver-Burk
Assay type in all cases: biochemical, synthetic construct
ACM_C1 = tested on: T1, ACM_C1; details: 15 mM NH4Cl, 10 mM imidazole-HCl pH 7.8, 95 °C (Topt)
T1 construct: gene by GenScript, pBAD TOPO, E. coli TOP10
Source text: periodate / malachite green phosphate assay, Lineweaver-Burk on ACM_C1

AAM_A1 = tested on: T2, AAM_A1; details: 15 mM NH4Cl, 10 mM imidazole-HCl pH 7.8, 99 °C (Topt)
T2 construct: gene by GenScript, pBAD TOPO, E. coli TOP10
Source text: periodate / malachite green phosphate assay, Lineweaver-Burk on AAM_A1

ACM_C2 = tested on: T3, ACM_C2; details: 15 mM NH4Cl, 10 mM imidazole-HCl pH 7.8, 95 °C (Topt)
T3 construct: gene by GenScript, pBAD TOPO, E. coli TOP10
Source text: periodate / malachite green phosphate assay, Lineweaver-Burk on ACM_C2

ATM_T4 = tested on: T4, ATM_T4; details: 15 mM NH4Cl, 10 mM imidazole-HCl pH 7.8, 83 °C (Topt)
T4 construct: reconstructed node T ancestor, one of four (125/126 Ser/Lys or Thr/Glu); gene by GenScript, pBAD TOPO, E. coli TOP10
Source text: periodate / malachite green phosphate assay, Lineweaver-Burk on ATM_T4

ATM_T3 = tested on: T5, ATM_T3; details: 15 mM NH4Cl, 10 mM imidazole-HCl pH 7.8, 85 °C (Topt)
T5 construct: reconstructed node T ancestor, one of four (125/126 Ser/Lys or Thr/Glu); gene by GenScript, pBAD TOPO, E. coli TOP10
Source text: periodate / malachite green phosphate assay, Lineweaver-Burk on ATM_T3

AAM_A2 = tested on: T6, AAM_A2; details: 15 mM NH4Cl, 10 mM imidazole-HCl pH 7.8, 99 °C (Topt)
T6 construct: gene by GenScript, pBAD TOPO, E. coli TOP10
Source text: periodate / malachite green phosphate assay, Lineweaver-Burk on AAM_A2

ATM_T1 = tested on: T7, ATM_T1; details: 15 mM NH4Cl, 10 mM imidazole-HCl pH 7.8, 90 °C (Topt)
T7 construct: reconstructed node T ancestor, one of four (125/126 Ser/Lys or Thr/Glu); gene by GenScript, pBAD TOPO, E. coli TOP10
Source text: periodate / malachite green phosphate assay, Lineweaver-Burk on ATM_T1

ATM_T2 = tested on: T8, ATM_T2; details: 15 mM NH4Cl, 10 mM imidazole-HCl pH 7.8, 83 °C (Topt)
T8 construct: reconstructed node T ancestor, one of four (125/126 Ser/Lys or Thr/Glu); gene by GenScript, pBAD TOPO, E. coli TOP10
Source text: periodate / malachite green phosphate assay, Lineweaver-Burk on ATM_T2

How did the Km (ACM_C1) turn out when `O=P(O)(O)OC[C@H]1OC(O)[C@H](O)[C@@H](O)[C@@H]1O` (some centres unmarked) [glucose-6-phosphate] was run?
The Km was 2.34 ± 0.46 mM.

What about the Km (AAM_A1) of the same compound?
Its Km is 2.77 ± 0.6 mM.

And the Km (ACM_C2)?
The Km was 6.27 ± 1.94 mM.

And the Km (ATM_T4)?
Its Km is 600 ± 60 µM.

What about the Km (ATM_T3) of the same compound?
Its Km is 540 ± 150 µM.

And the Km (AAM_A2)?
Its Km is 1.32 ± 0.11 mM.

What about the Km (ATM_T1) of the same compound?
The Km was 630 ± 100 µM.

What about the Km (ATM_T2) of the same compound?
The Km was 460 ± 80 µM.
